Patent US6676950B2, “Neurokinin receptor antagonists and methods of use thereof for inhibiting HIV infection” (The Children's Hospital of Philadelphia, priority 2001, dated 2004)

What was measured:
[1] = system: CCR5; assay: Flow cytometry of CCR5 receptor expression on MDM; assay type: cell-based, human
Protocol: The cells were removed from the culture plate and then resuspended in 100 μl of phosphate-buffered saline (PBS). After incubation with 20 μl of either anti-CCR5-FITC or anti-CXCR4-FITC or anti-CD4-FITC or anti-CD14-FITC for 45 min at 4° C., the cells were washed twice with PBS and fixed with 1% paraformaldehyde in PBS. Fluorescein-conjugated control antibodies were isotype-matched IgG. Fluorescence was analyzed on an EPICS-Elite flow cytometer (Beckman-Coulter Electronics, Hialeah, Fla.).

[2] = system: X4 strain (UG024); assay: HIV RT activity in MDM infected with X4 strain; assay type: cell-based; details: 8 days after infection
Protocol: (§1) Based upon their differential use of the major HIV co-receptors, HIV isolates have been referred to as R5, X4 or R5X4 strains, respectively (29). The M-tropic (macrophage-tropic) R5 prototype strains (Bal and ADA), dual tropic strain (89.6) and X4 primary isolate (UG024), were obtained from the NIH AIDS Reagent Program. Primary M-tropic isolates (BL-6 and CSF-6) were isolated from the blood and cerebrospinal fluid cells, respectively, of a subject with AIDS. […] The cells were also incubated with SP and/or anti-SP antibody. In this case, SP was incubated with (1:1000 dilution in 10% FCS DMEM) or without anti-SP antibody at room temperature for 10 min and then the mixture was added to the cell cultures for 2 h. When the cells were treated with the combination of CP-96,345 and SP, or CP-96,345, SP and anti-SP antibody, CP-96,345 was incubated with the cell culture for 10 min and then SP was added to the MDM or CP-96,345, SP and anti-SP (1:1000 in 10% FCS DMEM) were incubated for 10 min at room temperature and the mixture was incubated with the MDM for 2 h before infection with HIV. Untreated MDM served as controls. The cells were treated prior to, during, and throughout the infection. […]

[3] = system: R5X4 strain (89.6); assay: HIV RT activity in MDM infected with R5X4 strain; assay type: cell-based; details: 8 days after infection
Protocol: as §1

[4] = system: HIV LTR promoter; assay: HIV LTR-driven CAT activity assay in U38 cells; assay type: cell-based
From the text: ACH-2 and U38 cell lines (25, 26) were obtained from the NIH AIDS Reagent Program. DNA extracted from ACH-2 cells was used as a positive standard for HIV DNA PCR as previously reported (27). The U38 cell line contains stably integrated, silent copies of the HIV LTR (long terminal repeat) promoter linked to a CAT (chloramphenicol acetyltransferase) gene and was used to study the effect of SP and/or CP-96,345 and R-113281 on the activation of HIV LTR promoter.
Chloramphenicol acetyltransferase (CAT) activity assay: U38 cells (2×10^6 cells) were incubated with different concentrations of SP and/or CP-96,345 or R-113281 for 48 h. Untreated U38 cells were used as a background control. Cellular proteins were extracted using 1X Reporter Lysis Bufffer (Promega Corp., Madison, Wis.). The lysates were incubated with a mixture containing 0.15 μCi of ^14C-labeled chloramphenicol (DuPont Inc., Boston, Mass.) and 200 μg/ml of n-Butyryl CoA (Promega Corp., Madison, Wis.) in a total volume of 125 μl at 37° C. for 3 h. The acetylated forms of chloramphenicol were extracted with xylene (Aldrich Chemical Company, Milwaukee, Wis.). CAT activity of each sample was quantified using a liquid-scintillation counter (Packard Instrument Company, Downers Grove, Ill.). The results were expressed as the ratio of CAT activity (CPM) of the SP and/or CP-96,345-treated or R-113281-treated U38 to that of the background control.

[5] = system: R5 strains (Bal, ADA, CSF-6 and BL-6); assay: HIV RT activity in MDM infected with R5 strains; assay type: cell-based; details: 8 days after infection
Protocol: as §1

[6] = system: HIV Bal strain; assay: HIV RT activity in culture supernatants of HIV Bal strain-infected MDM; assay type: cell-based, HIV-1
Protocol: The cells were also incubated with SP and/or anti-SP antibody. In this case, SP was incubated with (1:1000 dilution in 10% FCS DMEM) or without anti-SP antibody at room temperature for 10 min and then the mixture was added to the cell cultures for 2 h. When the cells were treated with the combination of CP-96,345 and SP, or CP-96,345, SP and anti-SP antibody, CP-96,345 was incubated with the cell culture for 10 min and then SP was added to the MDM or CP-96,345, SP and anti-SP (1:1000 in 10% FCS DMEM) were incubated for 10 min at room temperature and the mixture was incubated with the MDM for 2 h before infection with HIV. Untreated MDM served as controls. The cells were treated prior to, during, and throughout the infection.
HIV Infection: After 2 h incubation with or without the reagents described above, the cells were infected with equal amounts of cell-free HIV based on p24 antigen content (20 ng/10^6 cells) overnight, and then washed to remove unbound virus. Fresh media containing SP and/or CP-96,345 or anti-SP antibody were added to the MDM as described above. The culture media and the reagents were replaced twice weekly. The culture supernatants were harvested for HIV reverse transcriptase (RT) activity determinations. After HIV infection, the MDM were incubated for 8 to 12 days. At the termination of the experiments, cellular RNA was extracted for assessment of HIV gag gene expression using RT-PCR or real time RT-PCR assays.
The HIV RT activity assay was carried out based on the technique of Willey et al. (30) with modification (22).

Compound | CCR5 receptor expression on MDM (percentage positive cells) ([1]; incubated overnight (24 h), direct immunofluorescence) | replication of X4 strain UG024 (HIV RT activity) ([2]; CP-96,345 10^−7M) | replication of R5X4 strain 89.6 (HIV RT activity) ([3]; CP-96,345 10^−7M) | effect on SP activation of HIV LTR-driven CAT activity ([4]; SP 10^−8M plus CP-96,345 10^−6M, 48 h) | replication of R5 strains (HIV RT activity) ([5]; CP-96,345 10^−7M) | viral replication as determined by HIV RT activity ([6]; 10^−7M, 8 days after infection, vs HIV infection control) | effect on SP-enhanced HIV replication in MDM (HIV RT activity and HIV gag mRNA levels) ([6]; SP 10^−6M, CP-96,345 10^−6M, anti-SP antibody 1:1000 dilution, 12 days after infection) | HIV replication relative to HIV infection control ([6]; in presence of SP 10^−6M, CP-96,345 10^−6M and/or anti-SP antibody 1:1000, 12 days) | CCR5 protein expression (percentage of CCR5 positive cells, flow cytometry) ([1]; R-113281 10^−6 M, 24 hours) | replication of X4 strain (HIV RT activity) ([2]; R-113281 10^−6 M) | replication of R5X4 strain (HIV RT activity) ([3]; R-113281 10^−6 M) | effect on SP activation of HIV LTR-driven CAT activity ([4]; SP (10^−8M) plus R-113281 (10^−6M), 48 hours) | replication of R5 strains (HIV RT activity) ([5]; R-113281 10^−6 M) | HIV RT activity ([6]; MDM treated 2 hours, HIV-1 M-tropic strain Bal, day 8 post-infection)
COc1ccccc1CN[C@H]1C2CCN(CC2)[C@H]1C(c1ccccc1)c1ccccc1 [CP-96,345, [2S,3S)-cis-2-(diphenylmethyl)-N-[(2-methoxyphenyl)-methyl]-1-azabicyclo [[2.2.2]-octan-3-amine]] | down-regulated | not affected | inhibited to a lesser extent | abrogated | inhibited | inhibited | abrogated | down-regulated HIV replication to a level that was even lower than that of the HIV infection control |  |  |  |  |  | 
COc1cc(C(=O)N2CCO[C@](CCN3CCC4(CC3)c3ccccc3C[S@+]4[O-])(c3ccc(Cl)c(Cl)c3)C2)cc(OC)c1OC.Cl [R-113281] |  |  |  |  |  |  |  |  | inhibited | not affected | inhibited to a lesser extent | abrogated | inhibited | significantly reduced
